# Data from patent US12686691B2, “Crystalline form of SHP2 inhibitor, and composition thereof, preparation method therefor, and use thereof” (ETERN BIOPHARMA (SHANGHAI) CO., LTD., priority 2020, dated 2026).
# Legend:
# Assay type in all cases: physicochemical
# [1] = Stability investigation of the crystalline form A (placement under temperature/humidity, XRPD and HPLC); conditions: for Crystalline form change: XRPD; for HPLC purity initial: before placement
# Protocol: (§1) Instruments and Experimental Conditions Used in the Example • 1. Differential Scanning Calorimeter, DSC • Instrument model: Mettler Toledo DSC3+Stare e System • Purge gas: nitrogen (50 mL/min) • Ramping rate: 10.0° C./min • Temperature range: 20-250° C. • 2. X-Ray Powder Diffraction, XRPD • Instrument model: Rigaku UltimalV X-ray powder diffractometer • Ray: monochromatic Cu—Kα ray (λ=1.5418 Å) • Scanning mode: θ/2θ, scanning range: 3-45° • Voltage: 40 kV, current: 40 mA • 3. Thermogravimetric Analysis, TGA • Instrument model: Mettler Toledo TGA2STAR eSystem • Purge gas: nitrogen • Ramping rate: 10.0° C./min • Temperature range: 20-250° C. • 4. Dynamic Vapour Sorption, DVS • Instrument model: TAQ5000VSA • Temperature: 25° C. • Solvent: water • Humidity change: 0-95-0-95-0% RH, step by 10%, less than 0.01% of mass change within […] as the judging standard • 4. HPLC Method • Instrument model: Agilent 1100 with VWD detector • Columns: poroshell 120 EC C18, 3.0 mm/50 mm/2.7 μm • Mobile phase: A: 0.03% NH4OH (25%~28%) in water • B: 0.03% NH4OH (25%~28%) in acetonitrile
# • Mobile Phase Flow Rate: 1.0 mL/min • Run time: 10.0 min • Injection volume: 2 μL • Detecting wavelength: UV, 254 nm • Column temperature: 25° C. • Injector temperature: RT • Diluent: acetonitrile:water=1:1 (v:v)
# The crystalline form A of Compound 1 was placed under 60° C./closed condition for 24 hours, under 25° C./60% RH and 40° C./75% RH in an open state for one week, respectively. The physical and chemical stability of the sample was detected by XRPD and HPLC.
# [2] = Variable temperature XRPD (heating under nitrogen protection, XRPD after cooling)
# Protocol: as §1
# The crystalline form A of Compound 1 was placed under nitrogen protection and heated to different temperatures (30° C., 92° C., 118° C., 132° C. and 175° C., respectively), then subjected to XRPD test after it was cooled.
# The crystalline form B of Compound 1 was placed under nitrogen protection and heated to different temperatures (130° C. and 180° C., respectively), then subjected to XRPD test after it was cooled to room temperature.
# The crystalline form C of Compound 1 was placed under nitrogen protection and heated to different temperatures (130° C. and 160° C., respectively), then subjected to XRPD test after it was cooled to room temperature.
# The crystalline form D of Compound 1 was placed under nitrogen protection and heated to different temperatures (100° C. and 160° C., respectively), then subjected to XRPD test after it was cooled to room temperature.
# The crystalline form E of Compound 1 was placed under nitrogen protection and heated to different temperatures (96° C. and 180° C., respectively), then subjected to XRPD test after it was cooled to room temperature.
# DVS hygroscopicity test = test: DVS hygroscopicity test
# Protocol: as §1
# Hygroscopicity of the crystalline form A of Compound 1 was evaluated by DVS test.
# [3] = 40° C./75% RH, 1 week, open state
# [4] = heated to 130° C. under nitrogen
# [5] = heated to 180° C. under nitrogen
# [6] = heated to 160° C. under nitrogen
compound,measurement,setting,value
"Nc1nccc(Sc2cnc(N3CCC4(CC3)Cc3ncccc3[C@H]4N)n3ccnc23)c1Cl [crystalline form A, (S)-1′-(8-((2-amino-3-chloropyridin-4-yl)thio)imidazo[1,2-c]pyrimidin-5-yl)-5,7-dihydrospiro[cyclopentadieno[b]pyridine-6,4′-piperidine]-5-amine]",HPLC purity After placement,"[1]; 25° C./60% RH, 1 week",97.99 area %
same,HPLC purity Relative to initial,"[1]; 25° C./60% RH, 1 week",99.6%
same,Crystalline form change,"[1]; 25° C./60% RH, 1 week",no crystalline form change
same,Crystalline form change,"[1]; 25° C./60% RH, 1 week, listed as Crystalline form A",no
same,HPLC purity After placement,[1]; [3],97.89 area %
same,HPLC purity Relative to initial,[1]; [3],99.5%
same,Crystalline form change,[1]; [3],only part of crystalline form A was converted to hydrate crystalline form B
same,Crystalline form change,"[1]; 40° C./75% RH, 1 week, open state, listed as Crystalline form A",yes
same,HPLC purity After placement,"[1]; 60° C./closed, 24 hours",98.55 area %
same,HPLC purity Relative to initial,"[1]; 60° C./closed, 24 hours",99.9%
same,Crystalline form change,"[1]; 60° C./closed, 24 hours",no crystalline form change
same,Crystalline form change,"[1]; 60° C./closed, 24 hours, listed as Crystalline form A",no
same,chemical stability (HPLC),[1]; all three stability test conditions,good chemical stability
same,purity maintained after placement (HPLC),"[1]; all three stability test conditions (25° C./60% RH 1 week, 40° C./75% RH 1 week, 60° C./closed 24 hours)",about 98%
same,HPLC purity initial,[1]; sample of the 25° C./60% RH and 40° C./75% RH 1 week tests,98.41 area %
same,HPLC purity initial,[1]; sample of the 60° C./closed 24 hours test,98.60 area %
same,stability (overall conclusion of the stability investigation),[1]; conclusion from Examples 1.67 and 1.68,excellent stability
same,crystalline form change during heating,"[2]; heated to 30° C., 92° C., 118° C., 132° C. and 175° C. under nitrogen, XRPD after cooling",no crystalline form change
same,weight gain of moisture absorption,"DVS hygroscopicity test; DVS, 80.0% RH, 25° C.",1.88%
same,hygroscopicity,"DVS hygroscopicity test; DVS, judged from weight gain at 80.0% RH",slight hygroscopicity
same,crystalline form before and after DVS test (XRPD),DVS hygroscopicity test; XRPD before and after DVS,consistent
"Nc1nccc(Sc2cnc(N3CCC4(CC3)Cc3ncccc3[C@H]4N)n3ccnc23)c1Cl [crystalline form B, (S)-1′-(8-((2-amino-3-chloropyridin-4-yl)thio)imidazo[1,2-c]pyrimidin-5-yl)-5,7-dihydrospiro[cyclopentadieno[b]pyridine-6,4′-piperidine]-5-amine]",crystalline form after heating and cooling to room temperature,[2]; [4],converted into an amorphous form
same,crystalline form after heating and cooling to room temperature,[2]; [5],converted to the crystalline form A
"Nc1nccc(Sc2cnc(N3CCC4(CC3)Cc3ncccc3[C@H]4N)n3ccnc23)c1Cl [crystalline form C, (S)-1′-(8-((2-amino-3-chloropyridin-4-yl)thio)imidazo[1,2-c]pyrimidin-5-yl)-5,7-dihydrospiro[cyclopentadieno[b]pyridine-6,4′-piperidine]-5-amine]",crystalline form after heating and cooling to room temperature,[2]; [4],converted into an amorphous form
same,crystalline form after heating and cooling to room temperature,[2]; [6],converted to the crystalline form A
"Nc1nccc(Sc2cnc(N3CCC4(CC3)Cc3ncccc3[C@H]4N)n3ccnc23)c1Cl [crystalline form D, (S)-1′-(8-((2-amino-3-chloropyridin-4-yl)thio)imidazo[1,2-c]pyrimidin-5-yl)-5,7-dihydrospiro[cyclopentadieno[b]pyridine-6,4′-piperidine]-5-amine]",crystalline form after heating and cooling to room temperature,[2]; heated to 100° C. under nitrogen,crystallinity was significantly reduced
same,crystalline form after heating and cooling to room temperature,[2]; [6],diffraction signal of the crystalline form A is observed
"Nc1nccc(Sc2cnc(N3CCC4(CC3)Cc3ncccc3[C@H]4N)n3ccnc23)c1Cl [crystalline form E, (S)-1′-(8-((2-amino-3-chloropyridin-4-yl)thio)imidazo[1,2-c]pyrimidin-5-yl)-5,7-dihydrospiro[cyclopentadieno[b]pyridine-6,4′-piperidine]-5-amine]",crystalline form after heating and cooling to room temperature,[2]; heated to 96° C. under nitrogen,a small amount of diffraction signal of the crystalline form A is observed
same,crystalline form after heating and cooling to room temperature,[2]; [5],completely converted to the crystalline form A
